The values that follow come from the NIST ThermoML archive (doi:10.1016/j.fluid.2012.05.006).

± gives the expanded uncertainty stated by the source.

The nature of this data set: activity coefficient (dimensionless); of the first substance listed, at infinite dilution; xn = mol fraction of the nth substance listed. Particulars: Liquid, Chromatography, x1 = 0.

With `CCCCC` [pentane] + CCCCCCCCn1cc[n+](C)c1.O=[N+]([O-])[O-], the activity coefficient is 8.5 ± 0.3 (303.15 K); 7.8 ± 0.28 (313.15 K); 7.45 ± 0.26 (323.15 K); 6.94 ± 0.25 (333.15 K); 6.46 ± 0.23 (343.15 K); 6.19 ± 0.22 (353.15 K). The activity coefficient (363.15 K) amounted to 5.77 ± 0.21.

Regarding `CCOC(C)=O` [ethyl acetate] + CCCCCCCCn1cc[n+](C)c1.O=[N+]([O-])[O-], the activity coefficient runs as follows: (303.15 K) 1.65 ± 0.1; (313.15 K) 1.64 ± 0.1; (323.15 K) 1.63 ± 0.1; (333.15 K) 1.63 ± 0.1; (343.15 K) 1.62 ± 0.1; (353.15 K) 1.61 ± 0.1. In addition, the activity coefficient (363.15 K) was determined as 1.6 ± 0.1.
